# Source: patent publication US7132546B2, “Aniline derivatives or salts thereof and cytokine production inhibitors containing the same” (Ishihara Sangyo Kaisha, Ltd., priority 2000, dated 2006)
# Assays:
# [1] = system: interleukin 5 (IL-5) production; experiment: Cytokine production inhibitory effect: IL-5 production by murine spleen cells treated with anti-mouse CD3 antibody and IL-2 (ELISA); assay type: cell-based, Balb/c mice; conditions: anti-CD3 antibody + IL-2, 40 to 48 hours, read-out: IL-5 production inhibitory ratio (%); for inhibition at 100 ppm: test compound 100 ppm
# Experimental: (§1) Murine spleen cells were treated with anti-mouse CD3 antibody and IL-2 to induce cytokine production. The test compounds were added to the cytokine production system to evaluate their inhibitory effect. Namely, anti-mouse CD3 antibody adjusted to from 10 to 20 μg/ml with borate buffered physiological saline (pH 8.5) was pipetted into a 96-well cell culture plate in an amount of 50 μl/well and left to stand at 4° C. for 18 hours. The unreacted solution was removed, washing with Hank's buffer solution was carried out once, and IL-2 adjusted to 10 ng/ml with a RPMI liquid containing 10% fetal bovine serum (FCS) was pipetted in an amount of 50 μl/well. For the negative control group, a solution alone without anti-CD3 antibody nor IL-2 was applied. Then, the diluted solution of each of the test compounds (concentration: 100 ppm unless otherwise specified) was pipetted in an amount of 50 μl/well, and a cell suspension of 1×10^7 cells/ml, prepared from spleen of Balb/c mice (female, 7 to 10 week old) was pipetted thereinto in an amount of 100 μl/well. After cultivation in an incubator (37° C., 5% carbon dioxide gas) for from 40 to 48 hours, the culture supernatant was recovered to measure the cytokine production amount by ELISA method.
# (§2) With respect to interleukin 5 (IL-5) as a typical Th2 type cytokine and interferon γ (IFN-γ) as a typical Th1 type cytokine, measurements were carried out by the following methods, respectively. Namely, quantitative determination of IL-5 was carried out by the following ELISA method. First, rat anti-mouse IL-5 antibody (Endogen Code No. MM-550C) as a primary antibody was diluted with carbonate buffer solution (pH 9.5) to 1 μg/ml, and spread in a 96 well plate (IWAKI, Code No. 3860-096) in an amount of 50 μl/well for coating at 4° C. overnight (16 to 24 hours). Then, the plate was subjected to blocking at 37° C. for 2 hours by phosphate buffered physiological saline containing 10% FCS (pH 7.2) (blocking buffer solution) (250 μl/well). The plate was washed with PBS (washing buffer) containing 0.05% Tween 20 (Nacalai Tesque, Code No. 281-51) four times, and a diluted liquid of the culture supernatant was spread in an amount of 50 μl/well, followed by incubation at room temperature for 1 hour. For preparation of a standard line, recombinant mouse IL-5 (R&D systems, Code No. 405-ML) was employed. The plate was washed with a washing buffer four times, and biotin-labeled rat anti-mouse IL-5 antibody (Pharmingen, Code No. 18062D) as a secondary antibody diluted to 0.5 μg/ml with a blocking buffer containing 0.05% Tween 20 was added thereto (50 μl/well), followed by incubation at room temperature for 1 hour. The plate was washed with a washing buffer four times, strept avidin-labeled peroxidase (ProZyme, Code No. CJ30H001) diluted 800 times with a blocking buffer containing 0.05% Tween 20 was added thereto (50 μl/well), followed by reaction at room temperature for 15 minutes. The plate was washed with a washing buffer four times, and a […] substrate solution (SIGMA, Code No. T-8665) was added thereto in an amount of 100 μl/well for color developing for from 10 to 20 minutes. A 1M sulfuric acid solution was added thereto in an amount of 100 μl/well to terminate the reaction, and absorption (wavelength 450 nm) was measured by means of micro plate reader (SPECTRA max, Wako Pure Chemicals Industries, Ltd.). Quantitative determination of IFN-γ was carried out in the same manner as the measurement of IL-5, employing rat anti-mouse IFN-γ antibody (Pharmingen, Code No. 18181D) and biotin labeled rat anti-mouse IFN-γ antibody (Pharmingen, Code NO. 18112D), as a primary antibody and a secondary antibody, respectively. For preparation of a standard line, recombinant mouse IFN-γ (GENZYME, Code No. 3485) was employed. The experiment was carried out in duplicate, and the average of the cytokine production amount was obtained. […]
# [2] = system: interferon γ (IFN-γ) production; experiment: Cytokine production inhibitory effect: IFN-γ production by murine spleen cells treated with anti-mouse CD3 antibody and IL-2 (ELISA); assay type: cell-based, Balb/c mice; conditions: anti-CD3 antibody + IL-2, 40 to 48 hours, read-out: IFN-γ production inhibitory ratio (%); for inhibition at 100 ppm: test compound 100 ppm
# Experimental: as §1, §2
melting point [°C],SMILES,inhibition at 100 ppm [1] [%],inhibition at 100 ppm [2] [%],inhibition at 10 ppm ([1]; test compound 10 ppm) [%],inhibition at 10 ppm ([2]; test compound 10 ppm) [%]
160 to 161,O=C(Nc1ccc(Oc2ccc(C(F)(F)F)cn2)c(Cl)c1)c1cccc(Cl)c1 [compound 6],100,100,,
127 to 129,O=C(Nc1ccc(Oc2ccc(C(F)(F)F)cn2)c(Cl)c1)c1cccc(C(F)(F)F)c1 [compound 7],100,100,,
154 to 155,O=C(Nc1ccc(Oc2ccc(C(F)(F)F)cn2)c(Cl)c1)c1ccc(C(F)(F)F)cc1 [compound 8],,,58,67
152 to 154,COc1ccc(C(=O)Nc2ccc(Oc3ccc(C(F)(F)F)cn3)c(Cl)c2)cc1OC [compound 9],96,100,,
165 to 167,O=C(Nc1ccc(Oc2ccc(C(F)(F)F)cn2)c(Cl)c1)c1ccccc1O [compound 15],99,100,,
159 to 161,O=CNc1cccc(C(=O)Nc2ccc(Oc3ccc(C(F)(F)F)cn3)c(Cl)c2)c1O [compound 17],100,100,,
211.5 to 214.4,O=C(Nc1ccc(Cc2ccccc2)cc1)c1cc([N+](=O)[O-])ccc1O [compound 18],100,100,,
262,O=C(Nc1ccc(C23CC4CC(CC(C4)C2)C3)cc1)c1cc([N+](=O)[O-])ccc1Cl [compound 21],96,89,,
154,Cc1cc(C23CC4CC(CC(C4)C2)C3)ccc1NC(=O)c1ccccc1Cl [compound 22],100,100,,
177,Cc1cc(C23CC4CC(CC(C4)C2)C3)ccc1NC(=O)c1cccc([N+](=O)[O-])c1 [compound 23],100,100,,
200,Cc1cc(C23CC4CC(CC(C4)C2)C3)ccc1NS(=O)(=O)c1ccccc1Cl [compound 25],89,93,,
206,Cc1ccc(NC(=O)c2cc([N+](=O)[O-])ccc2Cl)c(C)c1 [compound 26],82,30,,
154,COc1ccc(NC(=O)c2cc([N+](=O)[O-])ccc2Cl)cc1 [compound 28],100,100,,
162,CSc1ccc(NC(=O)c2cc([N+](=O)[O-])ccc2Cl)cc1 [compound 29],98,100,,
176,O=C(Nc1ccc(C(F)(F)F)cc1)c1cc([N+](=O)[O-])ccc1Cl [compound 30],100,100,,
196,Cc1cc(Oc2ccc(C(F)(F)F)cc2)ccc1NC(=O)c1cc([N+](=O)[O-])ccc1Cl [compound 31],62,63,,
189,O=C(Nc1ccc(Sc2ccc(C(F)(F)F)cn2)cc1)c1cc([N+](=O)[O-])ccc1Cl [compound 32],99,98,,
168,O=C(Nc1cccc(C(F)(F)F)c1)c1cc([N+](=O)[O-])ccc1Cl [compound 33],100,100,,

melting point [°C],SMILES,inhibition at 100 ppm [1] [%],inhibition at 100 ppm [2] [%],inhibition at 10 ppm ([1]; test compound 10 ppm) [%],inhibition at 10 ppm ([2]; test compound 10 ppm) [%]
184,COC(=O)c1cccc(C(=O)Nc2ccc(C34CC5CC(CC(C5)C3)C4)cc2C)c1 [compound 34],88,97,,
232,Cc1cc(C23CC4CC(CC(C4)C2)C3)ccc1NC(=O)c1cccc(C(=O)O)c1 [compound 35],100,100,,
198,Cc1cc(C23CC4CC(CC(C4)C2)C3)ccc1NC(=O)c1cc([N+](=O)[O-])ccc1C [compound 36],81,85,,
110,O=C(Nc1ccccc1Oc1ccccc1)c1cc([N+](=O)[O-])ccc1Cl [compound 37],97,100,,
154,O=C(Nc1ccccc1-c1ccccc1)c1cc([N+](=O)[O-])ccc1Cl [compound 38],86,93,,
103,O=C(Nc1cccc(Oc2ccccc2)c1)c1cc([N+](=O)[O-])ccc1Cl [compound 40],100,100,,
241,Cc1cc(C23CC4CC(CC(C4)C2)C3)ccc1NS(=O)(=O)c1cc([N+](=O)[O-])ccc1C [compound 44],93,100,,
198,Cc1cc(C23CC4CC(CC(C4)C2)C3)ccc1NC(=O)c1cc([N+](=O)[O-])ccc1F [compound 45],99,99,,
178,COC(=O)c1cc(C(=O)Nc2ccc(C34CC5CC(CC(C5)C3)C4)cc2C)cc([N+](=O)[O-])c1 [compound 47],89,95,,
148,O=[N+]([O-])c1ccc(Cl)c(S(=O)(=O)Nc2ccc(Oc3ccccc3)cc2)c1 [compound 49],100,100,,
83,Cc1cc(C23CC4CC(CC(C4)C2)C3)ccc1NC(=O)c1cccc(C#N)c1 [compound 50],95,98,,
226,O=C(c1ccccc1)c1ccc(NC(=O)c2cc([N+](=O)[O-])ccc2Cl)cc1 [compound 51],99,100,,
115,COc1ccc([N+](=O)[O-])c(OC)c1C(=O)Nc1ccc(C23CC4CC(CC(C4)C2)C3)cc1C [compound 52],75,96,,
224,Cc1cc(C23CC4CC(CC(C4)C2)C3)ccc1NC(=O)c1c(Cl)ccc([N+](=O)[O-])c1Cl [compound 53],94,93,,
200,Cc1cc(C23CC4CC(CC(C4)C2)C3)ccc1NC(=O)c1ccc([N+](=O)[O-])cc1Cl [compound 55],96,100,,
131,Cc1cc(C23CC4CC(CC(C4)C2)C3)ccc1NC(=O)c1cc([N+](=O)[O-])ccc1O [compound 56],100,100,,
233,Cc1cc(C23CC4CC(CC(C4)C2)C3)ccc1NC(=O)c1cc(Cl)ccc1[N+](=O)[O-] [compound 57],90,98,,
